Measurements: ChEMBL document CHEMBL4419171, “SMAC mimetic compounds as apoptosis inducers” (2013)

What was measured:
Type in all cases: functional
K562 [1] = assay: Cytotoxicity against human K562 cells assessed as cell viability at 0.1 nM in presence of 100 ng/ml cisplatin incubated for 72 hrs by WST1 dye based assay relative to control
K562 [2] = assay: Cytotoxicity against human K562 cells assessed as cell viability at 100 nM in presence of 100 nM taxol incubated for 72 hrs by WST1 dye based assay relative to control; conditions: K562, 72 h, read-out: Activity
HL-60 = assay: Cytotoxicity against human HL60 cells assessed as cell viability at 10 nM in presence of 100 ng/ml cisplatin incubated for 72 hrs by WST1 dye based assay relative to control
K562 [3] = assay: Cytotoxicity against human K562 cells assessed as cell viability at 10 nM in presence of 10 ng/ml cisplatin incubated for 72 hrs by WST1 dye based assay relative to control

CC[C@H](N)C(=O)N[C@@H]1C(=O)N2[C@@H](CC[C@@H]1Cn1cc(CO[C@H](C)[C@H](NC(=O)[C@H](C)NC)C(=O)N3CCC[C@H]3Cn3nnnc3Sc3ccccc3)nn1)CC[C@H]2C(=O)NC(c1ccccc1)c1ccccc1.O=C(O)C(F)(F)F
Activity (K562 [1]): 30%
viability at 0.1 µM (K562 [2]): 27%

CC[C@H](N)C(=O)N[C@@H]1C(=O)N2[C@@H](CC[C@@H]1CO)CC[C@H]2C(=O)NC(c1ccccc1)c1ccccc1.O=C(O)C(F)(F)F
Activity (HL-60): 43%
Activity (K562 [3]): 48%
